Experimental data taken from patent US7906620B2, “Tumor associated antigen, peptides thereof, and use of same as anti-tumor vaccines” (Yeda Research and Development Co. Ltd., priority 2002, dated 2011).

Tests used:
T2 cells = assay: In vitro priming of human CTL with prostate peptides, cytolytic assay on peptide pulsed T2 cells; assay type: cell-based; settings: for existence of peripheral CTL precursors in healthy individuals: peripheral blood of healthy individuals; for activation of CTL precursors in PBMC derived from CaP patients and healthy donors: three healthy and two CaP individuals
Procedure: FIGS. 16A-16D are graphs showing in vitro priming of human CTLs. PBMC of leukopheresis samples were isolated and in vitro CTL primed with peptide pulsed autologous DC. PBMC were supplemented with IL-7 and two days later IL-2 was added and renewed every three days. Additional two cycles of re-stimulation were done every 7 days over peptide pulsed monocytes. Seven days after the last stimulation cytolytic assay was performed using peptide pulsed or non-pulsed T2 cells as target. In FIG. 16A, PBMC derived from CaP individual (donor A) were primed and re-stimulated with STEAP-3 pulsed DC/monocytes. Target cells: relevant (STEAP-3) and non-relevant peptide (HIV-derived, PAP-3) pulsed T2 cells. In FIG. 16B, PBMC derived from healthy individual (donor B) were primed and restimulated with PAP-3 pulsed DC/monocytes. Target cells: relevant (PAP-3) and non-relevant peptide (HIV-derived, STEAP-3) pulsed T2 cells. PBMC derived from healthy individual (donor C) were primed and restimulated with either PAP-3 (C-1; FIG. 16C) or STEAP-3 (C-2; FIG. 16D) pulsed DC/monocytes. Relevant (PAP-3 or STEAP-3) peptide pulsed and non-pulsed T2 cells were used as targets.
FIGS. 17A-17C are graphs showing peptide specific CTL induced in human PBMC by PAP-3 (FIG. 17A), STEAP-3 (FIG. 17B), and PSGR-1 (FIG. 17C). PBMC from a healthy donor were stimulated by peptide pulsed DC as described and CTL activity was tested on homologous peptide pulsed T2 target cells (HLA-A2 lymphoma, TAP deficient).
Finally, peripheral blood of two healthy (donors B, C) and one CaP (donor A) individuals were tested for the existence of CTL precursors (FIGS. 16A-16D). Leukopheresis products of the donors were obtained from Barzilai Medical Center (Ashkelon, Israel) according to Declaration of Helsinki Principles. PBMC were isolated by centrifugation on Ficoll-Plaque Plus gradients (Amersham, Sweden). In vitro priming of CTL was done over autologous DC that were prepared from monocytes by IL-4 and GM-CSF treatment and maturated with a IL-1β, IL-6, TNF-α and PGE2 cocktail. DC were pulsed with synthetic peptides and PBMC were supplemented with IL-7. Two days later, IL-2 was added and renewed every three days. Two additional re-stimulations were done every 7 days over peptide pulsed monocytes. Seven days after the third stimulation, lymphocytes were harvested and a cytolytic assay was performed using relevant/non-relevant peptide pulsed or non-pulsed at all T2 cells.
When human PBMC are stimulated in vitro by PAP-3 and STEAP-3 peptides, the resulting CTL can lyse target cells (T2, EL4/HHD) pulsed with PAP-3, STEAP-3 or PSGR-1 and PSGR-6 peptides. (FIGS. 15 and 16). Here, these findings were expanded and peripheral blood of three healthy and two CaP individuals was tested for the existence of CTL precursors against PAP-3, STEAP-3 and PSGR-1 peptides. Leukopheresis products of the donors were obtained from Barzilai Medical Center (Ashkelon, Israel) according to Declaration of Helsinki Principles. PBMC were isolated by centrifugation on Ficoll-Plaque Plus gradients (Amersham, Sweden). In vitro priming of CTL was done over autologous DC that were prepared from monocytes by IL-4 and GM-CSF treatment and matured with a IL-1β, IL-6, TNF-α and PGE2 cocktail. DC were pulsed with synthetic peptides and PBMC were supplemented with IL-7. Two days later, IL-2 was added and renewed every three days. Two additional re-stimulations were done every 7 days over peptide pulsed monocytes. Seven days after the third stimulation, lymphocytes were harvested and a cytolytic assay was performed using relevant/non-relevant peptide pulsed or non-pulsed T2 cells (FIGS. 17A-17C) and LNCaP (high and low HLA expressors) cells as targets (FIGS. 18A-18E). […] Monitoring of HLA-A2-peptide specific CD8+ cells for PAP-3 and STEAP-3 was also performed by MHC-peptide tetramers (tetramers of recombinant HLA-A2.1-beta2 microglobulin single chain with peptides were prepared in collaboration with Dr Yoram Reiter, Technion, Haifa). […]

PC3-HHD tumors = assay: Adoptive transfer of anti-peptide CTL to CD1 nude mice bearing PC3-HHD tumors; assay type: in vivo; settings: for complete rejection of tumors: local injection day 7, PAP-3: 35×10^6 lymphocytes (11×10^6 CD8+), STEAP-3: 50×10^6 (3×10^6 CD8+), IL-2; for tumor growth in the other mice: same groups as complete rejection
Text: FIGS. 19A and 19B are graphs showing that adoptively transferred anti-peptide CTL retard tumor growth. HHD derived anti-PAP3 (FIG. 19A) or STEAP-3 (FIG. 19B) were stimulated in vitro and transferred to CD1 nude mice bearing 7 day PC3-HHD tumors (expressing PAP and STEAP) as described. Tumor growth was followed for 38 days.
HHD mice were immunized i.p. 6 times (twice at week) with 10^6 syngeneic dendritic cells pulsed with either PAP-3, STEAP-3 or irrelevant (tyrosinase-derived, HLA-A2.1 binding) peptides. Spleens were removed on day 10, and splenocytes were restimulated in vitro by 100 μM of either PAP-3 or STEAP-3 peptides in OPTIMEM for 2 h at 37° C., 5% CO2, followed by restimulation of lymphocytes for 4 more days in lymphocyte medium (RPMI-1640 supplemented with 25 mM HEPES, 10% heat-inactivated FCS, 0.1 mM non-essential amino acids, 1 mM sodium pyruvate, 2 mM. L-glutamine, 40 microg/ml garamycin and 5×10^−5 M 2-mercaptoethanol). Total lymphocytes were suspended at 10^6/ml and activated with plate-bound anti-CD3 mAb (145-2C11) for 72 h at 37° C. in 5% CO2 in 24-well plates. Activated cells were resuspended at a concentration of 3×10^5/ml lymphocyte medium with IL-2 (100 U/ml) for 3 days, then diluted 1:3 in fresh medium with IL-2 for an additional 4 days. Lymphocytes were harvested, samples were incubated with anti-CD4, anti-CD8 or isotype control mAb (all obtained from Catalog, USA), and analyzed using CellQuest software. Seven to nine CD1 nude mice per group received 4 Gy total body irradiation from a 137CS source, followed by s.c. inoculation with 5×10^6 PC3-HHD13 cells in Matrigel (BD PharMingen, San Diego, Calif.) to initiate tumors. Seven days later, mice were injected locally with 35×10^6 PAP-3 or tyrosinase specific lymphocytes (11×10^6 were CD8+), 50×10^6 STEAP-3 specific lymphocytes (3×10^6 were CD8+) or PBS. IL-2 (1000 U) was injected twice a day for five consecutive days. Tumor size was measured 3 times per week.

| Sequence | existence of peripheral CTL precursors in healthy individuals (T2 cells) | activation of CTL precursors in PBMC derived from CaP patients and healthy donors (T2 cells) | complete rejection of tumors (PC3-HHD tumors) | tumor growth in the other mice (PC3-HHD tumors) | activation of CTL precursors in PBMC derived from CaP individual (T2 cells; donor A) |
| --- | --- | --- | --- | --- | --- |
| ILLWQPIPV (listed as Homo sapiens) [PAP-3, PAP start position 135] | 2 out of 2 | activated CTL precursors | 4/8 | retarded growth |  |
| LLLGTIHAL (listed as Homo sapiens) [STEAP-3, STEAP start position 262] | 1 out of 2 | activated CTL precursors | 2/9 | retarded growth | activated peripheral CTL precursors |
